Key:
L1210 Leukemia [1] = test: L1210 Leukemia - Test 2; assay type: in vivo, mice
B16 Melanoma [2] = test: B16 Melanoma - Test 2 (ip tumor brei); assay type: in vivo, mice; conditions: QD +9
B16 Melanoma [3] = test: B16 Melanoma - Test 3 (sc trocar fragments); assay type: in vivo, mice
L1210 Leukemia [4] = test: L1210 Leukemia - Test 3 (vehicle comparison); assay type: in vivo, mice; conditions: for Effect MST % T/C / MST Days: Day 1 only
[5] = water
Lewis Lung Carcinoma = Lewis Lung Carcinoma - Test 1 (ip, delayed therapy); assay type: in vivo, mice

SMILES: [NH2][Pt]1([NH2])[O]C(=O)C([O-])C(=O)[O]1.[Na+] [Example 3, 2-Hydroxymalonato diammine platinum (II), sodium salt]
- Effect MST % T/C (L1210 Leukemia [1]; 4 mg/kg/inj ip, qd 1→9): 100 % T/C
- MST Days (L1210 Leukemia [1]; 4 mg/kg/inj ip, qd 1→9): 7.0 days
- Effect MST % T/C (L1210 Leukemia [1]; 8 mg/kg/inj ip, qd 1→9): 114 % T/C
- MST Days (L1210 Leukemia [1]; 8 mg/kg/inj ip, qd 1→9): 8.0 days
- Effect MST % T/C (L1210 Leukemia [1]; 16 mg/kg/inj ip, qd 1→9): 157 % T/C
- MST Days (L1210 Leukemia [1]; 16 mg/kg/inj ip, qd 1→9): 11.0 days
- Effect MST % T/C (L1210 Leukemia [1]; 20 mg/kg/inj iv, d.1, 5&9): 100 % T/C
- MST Days (L1210 Leukemia [1]; 20 mg/kg/inj iv, d.1, 5&9): 7.0 days
- Effect MST % T/C (L1210 Leukemia [1]; 24 mg/kg/inj ip, qd 1→9): 207 % T/C
- MST Days (L1210 Leukemia [1]; 24 mg/kg/inj ip, qd 1→9): 14.5 days
- Effect MST % T/C (L1210 Leukemia [1]; 40 mg/kg/inj ip, d.1): 114 % T/C
- MST Days (L1210 Leukemia [1]; 40 mg/kg/inj ip, d.1): 8.0 days
- Effect MST % T/C (L1210 Leukemia [1]; 40 mg/kg/inj iv, d.1): 100 % T/C
- MST Days (L1210 Leukemia [1]; 40 mg/kg/inj iv, d.1): 7.0 days
- Effect MST % T/C (L1210 Leukemia [1]; 40 mg/kg/inj iv, d.1, 5&9): 107 % T/C
- MST Days (L1210 Leukemia [1]; 40 mg/kg/inj iv, d.1, 5&9): 7.5 days
- Effect MST % T/C (L1210 Leukemia [1]; 60 mg/kg/inj ip, d.1): 121 % T/C
- MST Days (L1210 Leukemia [1]; 60 mg/kg/inj ip, d.1): 8.5 days
- Effect MST % T/C (L1210 Leukemia [1]; 60 mg/kg/inj iv, d.1): 100 % T/C
- MST Days (L1210 Leukemia [1]; 60 mg/kg/inj iv, d.1): 7.0 days
- Effect MST % T/C (L1210 Leukemia [1]; 60 mg/kg/inj iv, d.1, 5&9): 143 % T/C
- MST Days (L1210 Leukemia [1]; 60 mg/kg/inj iv, d.1, 5&9): 10.0 days
- Effect MST % T/C (L1210 Leukemia [1]; 80 mg/kg/inj iv, d.1, 5&9): 100 % T/C
- MST Days (L1210 Leukemia [1]; 80 mg/kg/inj iv, d.1, 5&9): 7.0 days
- Effect MST % T/C (L1210 Leukemia [1]; 90 mg/kg/inj ip, d.1): 143 % T/C
- MST Days (L1210 Leukemia [1]; 90 mg/kg/inj ip, d.1): 10.0 days
- Effect MST % T/C (L1210 Leukemia [1]; 90 mg/kg/inj iv, d.1): 107 % T/C
- MST Days (L1210 Leukemia [1]; 90 mg/kg/inj iv, d.1): 7.5 days
- Effect MST % T/C (L1210 Leukemia [1]; 120 mg/kg/inj ip, d.1): 136 % T/C
- MST Days (L1210 Leukemia [1]; 120 mg/kg/inj ip, d.1): 9.5 days
- Effect MST % T/C (L1210 Leukemia [1]; 120 mg/kg/inj iv, d.1): 100 % T/C
- MST Days (L1210 Leukemia [1]; 120 mg/kg/inj iv, d.1): 7.0 days
- maximum T/C (L1210 Leukemia [1]; iv, multi-dose regimen): 143%
- maximum T/C (L1210 Leukemia [1]; multi-dose therapy ip (qd 1→9)): 207-214%
- maximum T/C (L1210 Leukemia [1]; single ip doses, ip L1210): 143%
- Average Weight Change (B16 Melanoma [2]; 2 mg/kg/day ip): -1.5 g
- Effect MST % T/C (B16 Melanoma [2]; 2 mg/kg/day ip): 160 % T/C
- MST Days (B16 Melanoma [2]; 2 mg/kg/day ip): 33.0 days
- Average Weight Change (B16 Melanoma [2]; 4 mg/kg/day ip): -2.8 g
- Effect MST % T/C (B16 Melanoma [2]; 4 mg/kg/day ip): 168 % T/C
- MST Days (B16 Melanoma [2]; 4 mg/kg/day ip): 34.5 days
- Average Weight Change (B16 Melanoma [2]; 8 mg/kg/day ip): -3.2 g
- Effect MST % T/C (B16 Melanoma [2]; 8 mg/kg/day ip): 163 % T/C
- Average Weight Change (B16 Melanoma [2]; 16 mg/kg/day ip): -2.9 g
- Effect MST % T/C (B16 Melanoma [2]; 16 mg/kg/day ip): 185 % T/C
- MST Days (B16 Melanoma [2]; 16 mg/kg/day ip): 38.0 days
- Survivors Day 10 (60) (B16 Melanoma [2]; Day 10, 8 mg/kg/day ip): 9/10
- Survivors Day 10 (60) (B16 Melanoma [2]; Day 60 (figure in parentheses), 16 mg/kg/day ip): 1
- Effect MST %TC (B16 Melanoma [3]; 8 mg/kg/inj ip, qd 1→9): 102 %TC
- MST Days (B16 Melanoma [3]; 8 mg/kg/inj ip, qd 1→9): 31.0 days
- Effect MST %TC (B16 Melanoma [3]; 12 mg/kg/inj ip, qd 1→9): 92 %TC
- MST Days (B16 Melanoma [3]; 12 mg/kg/inj ip, qd 1→9): 28.0 days
- Effect MST %TC (B16 Melanoma [3]; 16 mg/kg/inj ip, qd 1→9): 125 %TC
- MST Days (B16 Melanoma [3]; 16 mg/kg/inj ip, qd 1→9): 38.0 days
- Effect MST %TC (B16 Melanoma [3]; 20 mg/kg/inj iv, d.1, 5&9): 93 %TC
- MST Days (B16 Melanoma [3]; 20 mg/kg/inj iv, d.1, 5&9): 28.5 days
- Effect MST %TC (B16 Melanoma [3]; 24 mg/kg/inj ip, qd 1→9): TOX
- MST Days (B16 Melanoma [3]; 24 mg/kg/inj ip, qd 1→9): TOX
- Effect MST %TC (B16 Melanoma [3]; 40 mg/kg/inj iv, d.1, 5&9): 108 %TC
- MST Days (B16 Melanoma [3]; 40 mg/kg/inj iv, d.1, 5&9): 33.0 days
- Effect MST %TC (B16 Melanoma [3]; 60 mg/kg/inj iv, d.1, 5&9): 108 %TC
- MST Days (B16 Melanoma [3]; 60 mg/kg/inj iv, d.1, 5&9): 33.0 days
- Effect MST %TC (B16 Melanoma [3]; 80 mg/kg/inj iv, d.1, 5&9): TOX
- MST Days (B16 Melanoma [3]; 80 mg/kg/inj iv, d.1, 5&9): TOX
- Effect MST %TC (B16 Melanoma [3]; 100 mg/kg/inj iv, d.1, 5&9): TOX
- MST Days (B16 Melanoma [3]; 100 mg/kg/inj iv, d.1, 5&9): TOX
- T/C (B16 Melanoma [3]; given ip, sc-implanted B16 melanoma): 125%
- maximum T/C (B16 Melanoma [3]; given iv, sc-implanted B16 melanoma): not active
- Effect MST % T/C (L1210 Leukemia [4]; 10 mg/kg ip, vehicle H2O): 114 % T/C
- MST Days (L1210 Leukemia [4]; 10 mg/kg ip, vehicle H2O): 8.0 days
- Effect MST % T/C (L1210 Leukemia [4]; 10 mg/kg ip, vehicle Saline): 100 % T/C
- MST Days (L1210 Leukemia [4]; 10 mg/kg ip, vehicle Saline): 7.0 days
- Effect MST % T/C (L1210 Leukemia [4]; 20 mg/kg ip, vehicle H2O): 143 % T/C
- MST Days (L1210 Leukemia [4]; 20 mg/kg ip, vehicle H2O): 10.0 days
- Effect MST % T/C (L1210 Leukemia [4]; 20 mg/kg ip, vehicle Saline): 100 % T/C
- MST Days (L1210 Leukemia [4]; 20 mg/kg ip, vehicle Saline): 7.0 days
- Effect MST % T/C (L1210 Leukemia [4]; 40 mg/kg ip, vehicle H2O): 129 % T/C
- MST Days (L1210 Leukemia [4]; 40 mg/kg ip, vehicle H2O): 9.0 days
- Effect MST % T/C (L1210 Leukemia [4]; 40 mg/kg ip, vehicle Saline): 114 % T/C
- MST Days (L1210 Leukemia [4]; 40 mg/kg ip, vehicle Saline): 8.0 days
- Effect MST % T/C (L1210 Leukemia [4]; 60 mg/kg ip, vehicle H2O): 143 % T/C
- MST Days (L1210 Leukemia [4]; 60 mg/kg ip, vehicle H2O): 10.0 days
- Effect MST % T/C (L1210 Leukemia [4]; 60 mg/kg ip, vehicle Saline): 114 % T/C
- MST Days (L1210 Leukemia [4]; 60 mg/kg ip, vehicle Saline): 8.0 days
- Effect MST % T/C (L1210 Leukemia [4]; 80 mg/kg ip, vehicle H2O): 143 % T/C
- MST Days (L1210 Leukemia [4]; 80 mg/kg ip, vehicle H2O): 10.0 days
- Effect MST % T/C (L1210 Leukemia [4]; 80 mg/kg ip, vehicle Saline): 143 % T/C
- MST Days (L1210 Leukemia [4]; 80 mg/kg ip, vehicle Saline): 10.0 days
- Effect MST % T/C (L1210 Leukemia [4]; 100 mg/kg ip, vehicle H2O): 143 % T/C
- MST Days (L1210 Leukemia [4]; 100 mg/kg ip, vehicle H2O): 10.0 days
- Effect MST % T/C (L1210 Leukemia [4]; 100 mg/kg ip, vehicle Saline): 129 % T/C
- MST Days (L1210 Leukemia [4]; 100 mg/kg ip, vehicle Saline): 9.0 days
- Maximum increase in median lifespan (T/C) (L1210 Leukemia [4]; single dose ip, saline and water as vehicles): 143%
- Solubility in H2O at 22-25°C [5]: > 100 mg/mL
- Effect MST %TC (Lewis Lung Carcinoma; 4 mg/kg/inj ip, qd 5→13): 120 %TC
- MST Days (Lewis Lung Carcinoma; 4 mg/kg/inj ip, qd 5→13): 15.0 days
- Effect MST %TC (Lewis Lung Carcinoma; 8 mg/kg/inj ip, qd 5→13): 140 %TC
- MST Days (Lewis Lung Carcinoma; 8 mg/kg/inj ip, qd 5→13): 17.5 days
- Effect MST %TC (Lewis Lung Carcinoma; 12 mg/kg/inj ip, qd 5→13): 148 %TC
- MST Days (Lewis Lung Carcinoma; 12 mg/kg/inj ip, qd 5→13): 18.5 days
- Effect MST %TC (Lewis Lung Carcinoma; 16 mg/kg/inj ip, qd 5→13): 160 %TC
- MST Days (Lewis Lung Carcinoma; 16 mg/kg/inj ip, qd 5→13): 20.0 days
- Effect MST %TC (Lewis Lung Carcinoma; 20 mg/kg/inj ip, d. 5,9&13): 124 %TC
- MST Days (Lewis Lung Carcinoma; 20 mg/kg/inj ip, d. 5,9&13): 15.5 days
- Effect MST %TC (Lewis Lung Carcinoma; 20 mg/kg/inj iv, d. 5,9&13): 100 %TC
- MST Days (Lewis Lung Carcinoma; 20 mg/kg/inj iv, d. 5,9&13): 12.5 days
- Effect MST %TC (Lewis Lung Carcinoma; 40 mg/kg/inj ip, d. 5,9&13): 148 %TC
- MST Days (Lewis Lung Carcinoma; 40 mg/kg/inj ip, d. 5,9&13): 18.5 days
- Effect MST %TC (Lewis Lung Carcinoma; 40 mg/kg/inj iv, d. 5,9&13): 108 %TC
- MST Days (Lewis Lung Carcinoma; 40 mg/kg/inj iv, d. 5,9&13): 13.5 days
- Effect MST %TC (Lewis Lung Carcinoma; 60 mg/kg/inj ip, d. 5,9&13): 196 %TC
- MST Days (Lewis Lung Carcinoma; 60 mg/kg/inj ip, d. 5,9&13): 24.5 days
- Effect MST %TC (Lewis Lung Carcinoma; 60 mg/kg/inj iv, d. 5,9&13): 132 %TC
- MST Days (Lewis Lung Carcinoma; 60 mg/kg/inj iv, d. 5,9&13): 16.5 days
- Effect MST %TC (Lewis Lung Carcinoma; 80 mg/kg/inj ip, d. 5,9&13): 268 %TC
- MST Days (Lewis Lung Carcinoma; 80 mg/kg/inj ip, d. 5,9&13): 33.5 days
- Effect MST %TC (Lewis Lung Carcinoma; 80 mg/kg/inj iv, d. 5,9&13): 148 %TC
- MST Days (Lewis Lung Carcinoma; 80 mg/kg/inj iv, d. 5,9&13): 18.5 days
- long-term survivors (day 48) (Lewis Lung Carcinoma; given ip, at maximum T/C): 2 to 6
- maximum T/C (Lewis Lung Carcinoma; given ip, therapy from day 5): 268%
- T/C (Lewis Lung Carcinoma; given iv, therapy from day 5): 148%

— patent publication EP0041644B1 (priority 1980, dated 1981)
